Legend:
[1] = cited from earlier work
[2] = Solubility of 3,3'-diindolylmethane as a function of concentration of various cyclodextrins; type: physicochemical; conditions: solutions of α-, β- and γ-cyclodextrin, figure 2
Excerpt: Solubility of 3,3'-diindolylmethane was investigated as a function of concentration of various cyclodextrins. The following were used in the experiments: • α-cyclodextrin (αCD); • β-cyclodextrin (βCD); • γ-cyclodextrin (γCD).

[3] = Concentration of 3,3'-diindolylmethane in the blood plasma of patients; type: in vivo; conditions: DIM dosage 100 mg
Excerpt: (§1) In clinical studies, effectiveness of a water-soluble complex based on cyclodextrins and crystalline 3,3'-diindolylmethane in equal doses was compared. […]

[4] = Clinical comparison of effectiveness of water-soluble complexes and crystalline DIM in equal doses; type: in vivo; conditions: all studied groups of patients
Excerpt: as §1

**Q.** For `c1ccc2c(Cc3c[nH]c4ccccc34)c[nH]c2c1` [DIM crystalline, 3,3'-diindolylmethane], which “Solubility of 3,3'-diindolylmethane in DMSO” value [1] is on record?
**A.** 18-20%

**Q.** And the “maximum solubility of 3,3'-diindolylmethane” value [2]?
**A.** maximum solubility of 3,3'-diindolylmethane is achieved in combination with β-cyclodextrin (βCD)

**Q.** What about the “The concentration of DIM in plasma” value [3] of the same molecule?
**A.** less than 30 ng / ml

**Q.** And the “effectiveness (dynamics in patients)” value [4]?
**A.** absence of such

From patent EP4122463A1, “DRUG IN THE FORM OF A COMPLEX OF 3,3'-DIINDOLYLMETHANE WITH Beta-CYCLODEXTRIN” (Kiselev, Vsevolod Ivanovich, priority 2020, dated 2021)
